From BindingDB's records for doi:10.1016/0006-2952(81)90220-3 (Royal Postgraduate Medical School, 1981)
“And” between values parts separate entries of the source, which are not always exact repeats. Identical values can stand only once.

The compounds below were run against Prostacyclin receptor (Mus musculus, UniProt P43252).
Prostacyclin receptor, sequence (P43252 whole entry): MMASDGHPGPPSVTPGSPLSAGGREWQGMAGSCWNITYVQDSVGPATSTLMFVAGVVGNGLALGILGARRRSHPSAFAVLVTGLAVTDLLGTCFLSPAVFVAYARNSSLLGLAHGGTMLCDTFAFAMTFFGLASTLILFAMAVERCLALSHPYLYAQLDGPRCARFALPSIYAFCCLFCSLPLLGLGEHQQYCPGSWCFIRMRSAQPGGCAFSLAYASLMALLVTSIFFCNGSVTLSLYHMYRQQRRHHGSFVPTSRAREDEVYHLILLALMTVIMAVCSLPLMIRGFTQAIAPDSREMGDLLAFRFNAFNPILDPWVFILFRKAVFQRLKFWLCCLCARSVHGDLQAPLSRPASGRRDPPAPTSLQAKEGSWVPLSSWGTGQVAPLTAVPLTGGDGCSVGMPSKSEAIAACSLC
A Ki greater than 10 µM was found for `CCCCC[C@@H](O)/C=C/[C@H]1[C@H](O)CC(=O)[C@@H]1C/C=C\CCCC(=O)O` in this work.
A Ki of 0.137 µM was found for `CCCCC[C@@H](O)/C=C/[C@H]1[C@H](O)CC(=O)[C@@H]1CCCCCCC(=O)O` in this work.
A Ki of 0.0166 µM was found for `CCCCC[C@H](O)/C=C/[C@@H]1[C@H]2C/C(=C\CCCC(=O)O)C[C@H]2C[C@H]1O` in this work.
A Ki greater than 10 µM was found for `CCCCC[C@H](O)/C=C/[C@@H]1[C@@H](CC(=O)CCC(=O)O)[C@@H](O)C[C@H]1O` [2,3-dinor-6-ketoprostaglandin F1alpha] in this work.
A Ki of 0.735 µM was found for `CCCCC[C@H](O)/C=C/C1[C@H](O)CC(=O)[C@H]1CCCCCCC(=O)O` (stereo partly drawn) [8-ISO PROSTAGLANDIN E1] in this work.
In the case of `CCCCCC(=O)CC[C@H]1[C@H](O)CC(=O)[C@@H]1C/C=C\CCCC(=O)O` [13,14-DIHYDRO-15-KETO PROSTAGLANDIN E2], the Ki is reported as 8.41 µM and > 10 µM.
A Ki of 4.37 µM was found for `O=C(O)CCC/C=C\C[C@H]1C(=O)C[C@@H](O)[C@@H]1/C=C/[C@@H](O)CCc1ccccc1` [17-PHENYL TRINOR PROSTAGLANDIN E2] in this work.
A Ki of 0.735 µM was found for `CCCCC[C@H](O)/C=C/[C@H]1[C@H](O)CC(=O)[C@@H]1C/C=C/CCCC(=O)O` [(E)-7-((1R,2R,3R)-3-hydroxy-2-((S,E)-3-hydroxyoct-1-enyl)-5-oxocyclopentyl)hept-5-enoic acid] in this work.
A Ki greater than 10 µM was found for `CCCCC[C@H](O)/C=C/C1[C@H](O)C[C@H](O)[C@@H]1C/C=C\CCCC(=O)O` (stereo partly drawn) [(Z)-7-[(1R,3R,5S)-3,5-Dihydroxy-2-((E)-(S)-3-hydroxy-oct-1-enyl)-cyclopentyl]-hept-5-enoic acid] in this work.
A Ki of 0.315 µM was found for `CCCCC[C@H](O)CC[C@H]1[C@H](O)CC(=O)[C@@H]1CCCCCCC(=O)O` [CAS_19313-28-1] in this work.
A Ki of 7.35 µM was found for `CCCCCC(O)C=CC1C(O)CC2OC(CCCCC(=O)O)CC21` (stereo not drawn) [CAS_162981] in this work.
A Ki greater than 10 µM was found for `CCCCC[C@H](O)/C=C/[C@H]1[C@H](O)CC(=O)[C@@H]1C/C=C\CCCC(=O)O` [DINOPROSTONE] in this work.
A Ki greater than 10 µM was found for `CCCCCC(O)C=CC1C(O)CC(O)C1CCCCCCC(=O)O` (stereo not drawn) [NSC_5280939] in this work.
